Values of other authors as cited in patent US20230000814A1, “PHARMACEUTICAL COMPOSITION COMPRISING STEROID COMPOUND AND OLOPATADINE” (TOKO YAKUHIN KOGYO CO., LTD., priority 2019, published 2023).
Read-outs that look alike come from different tables or passages of the source.

Structure (SMILES): CN(C)CC/C=C1/c2ccccc2COc2ccc(CC(=O)O)cc21 [olopatadine, Olopatadine]
- solubility of olopatadine (around neutral pH): very low
- solubility of olopatadine (concentration 0.2% or more as olopatadine free base, solution having pH of 5 or higher): not soluble
